The text below walks through data of paper PMC12948223, “HSP70 Interactome‐Mediated Proteolysis Targeting Chimera (HSP70‐PROTAC) for Ferroptosis‐Driven Cancer Treatment” (Advanced Science, 2025).

The target of data set [1] is T1, GPX4 (Homo sapiens, UniProt P36969).
T1 sequence (P36969 1-170 isoform P36969-2): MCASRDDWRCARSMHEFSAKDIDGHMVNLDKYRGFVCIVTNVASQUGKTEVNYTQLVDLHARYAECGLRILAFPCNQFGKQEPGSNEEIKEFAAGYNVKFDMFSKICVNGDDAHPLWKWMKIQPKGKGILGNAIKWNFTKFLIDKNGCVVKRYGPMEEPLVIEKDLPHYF
The data set is described as follows: GPX4 degradation by western blot in MDA-MB-231 cells. It is filed as cell-based. Set-up: determine the changes in the endogenous levels of GPX4 by western blot assay; endogenous in cells. As to conditions: 24 h. Here is the method:
To further confirm this degradation efficacy, an in‐cell western (ICW) assay, a quantitative immunofluorescence cell‐based technique, was performed to quantify the relative expression level of GPX4 after treatment with GDAz‐3 for 24 h. […] Given the promising GPX4 degradation activity of GDAz‐3, we extended our evaluation to additional ferroptosis‐sensitive cell lines, including triple‐negative breast cancer cells (MDA‐MB‐231) and melanoma cells (mouse B16‐F10). […] Based on the observation that GDAz‐3 was particularly effective in HT1080 cells, we selected this cell line for further degradation mechanism and ferroptosis pharmacodynamics studies.
Cells were seeded at a density of 4 × 10^5 cells well^−1 in 6‐well plates and allowed to incubate overnight. Cells were incubated with the indicated treatments. Thereafter, the cells were collected and lysed with RIPA buffer containing serine protease and phosphatase inhibitors for 30 min on ice. Proteins were quantified by using a BCA protein assay kit (Beyotime). […] Ultimately, the membrane was washed five times, and the antibody‐protein complexes were visualized using an ECL luminescence reagent (Biosharp, Shanghai, China). The relative intensities of the bands were analyzed by ImageJ and normalized to a loading control.

Data set [2] has as its target T1, GPX4. The data set is described as follows: GPX4 degradation by western blot in 786-O cells. It is filed as cell-based. The settings on record: 24 h. On the set-up: endogenous in cells; host or cells: 786-O. An excerpt: As previously mentioned, drug resistance and limited application scope are the significant challenges of traditional PROTAC, due partly to CRBN/VHL mutations or low expression. In this study, we investigated whether the developed HSP70‐PROTAC could address these challenges. Specifically, we examined the developed HSP70‐PROTAC in scenarios where VHL‐ or CRBN‐based PROTACs are ineffective due to intrinsic or acquired resistance. Several previously reported representative GPX4‐targeting degraders, including dGPX4 (CRBN‐based PROTAC, Figure 1A), 8e (VHL‐based PROTAC, Figure 1B), and GDCNF‐11/2 (HSP90‐based HIM‐PROTAC, Figure 1C, the structure of the GDCNF‐11 derivative GDCNF‐2 was not shown) were selected as control agents.^[ [18], [23], [28] ^] […] The clear cell renal cell carcinoma (ccRCC) 786‐O cell line is a well‐established cancer cell model characterized by an intrinsic deficiency in VHL expression.^[ [43], [44], [45] ^] We also confirmed this characteristic through evaluating the VHL expression levels in several randomly selected cancer cell lines (Figure S10A, Supporting Information). We further selected 786‐O cells as a model to confirm whether HSP70‐PROTAC could be used in such cases as an alternative to VHL‐based degraders, because VHL‐based PROTACs cannot be used to treat kidney cancer with a mutation or deletion in the VHL gene.
Cells were seeded at a density of 4 × 10^5 cells well^−1 in 6‐well plates and allowed to incubate overnight. Cells were incubated with the indicated treatments. Thereafter, the cells were collected and lysed with RIPA buffer containing serine protease and phosphatase inhibitors for 30 min on ice. Proteins were quantified by using a BCA protein assay kit (Beyotime). Subsequently, SDS‐PAGE sample loading buffer was added, and the mixture was heated in a 100 °C metal bath for 10 min to denature the proteins. Protein samples from each group were separated by SDS‐PAGE gel and transferred to a PVDF membrane. After blocking with 5% skim milk for 1 h at room temperature, primary antibodies (GPX4: abcam (#ab125066, 1:1000); Hsp70: abcam (#ab2787, 1:1000); CHIP: HUABIO (#ST7108, 1:1000); UpingBio Technology Co., Ltd. (BRD4, #YP‐Ab‐18034, 1:1000; BAG‐1, #YP‐Ab‐00575, 1:1000); GAPDH: Proteintech (#60004‐1‐Ig, 1:50 000)) were used and incubated at 4 °C overnight on a rotary shaker. After washing the membranes with TBST buffer five times, the membranes were incubated with a second antibody (Cell Signaling Technology, #7074S, 1:1000 and #7076S, 1:1000) at room temperature for 2 h. Ultimately, the membrane was washed five times, and the antibody‐protein complexes were visualized using an ECL luminescence reagent (Biosharp, Shanghai, China). The relative intensities of the bands were analyzed by ImageJ and normalized to a loading control.

A short description of data set [3]: Pharmacokinetic study in ICR mice. The settings on record: mouse; male ICR mice, IP, 30 mg/kg, plasma. It is filed as in vivo. Here is the method:
To evaluate the in vivo pharmacokinetic (PK) profile of the GDAz‐3 and explore its therapeutic potential, a single intraperitoneal (IP) injection (30 mg kg^−1) was conducted in male ICR mice. Plasma samples were collected at predetermined time points and analyzed using LC‐MS/MS.
The tested compound GDAz‐3 was IP administered to ICR mice (male, n = 3 per time‐point). Blood samples were collected at 0.0833, 0.25, 0.5, 1, 2, 4, 8, and 24 h after IP administration (30 mg kg^−1) and then centrifuged at 6800 g for 6 min at 4 °C to obtain plasma, which were stored at −80 °C until analysis The compound concentrations in plasma were determined by liquid chromatography‐tandem mass spectrometry (API5000 LC‐MS/MS).

Another data set concerns Fe2+. The data set is described as follows: Intracellular Fe2+ in HT1080 cells. The settings on record: HT1080 cells, 0.1, 0.5 and 1 µM, 24 h. Format: cell-based, human. On the procedure: HT1080 cells were seeded into 10‐cm culture dishes at a density of 2 × 10⁶ cells overnight, and various concentrations of GDAz‐3 (0.1, 0.5, and 1 µM) were added. The cells were digested and collected after treatment with drugs for 24 h. The cells were detected according to the instructions of the Cell Ferrous Iron (Fe^2⁺) Fluorometric Assay Kit (E‐BC‐F101, Elabscience Biotechnology Co., Ltd.). In brief, the cells were washed twice with Reagent 1 working solution in the kit, and then Reagent 2 working solution was added (1 mL per 10⁶ cells). The cells were incubated at 37 °C in the dark for 30–60 min. The samples were centrifuged at 300 × g for 5 min, and the supernatant was discarded. The cells were washed two to three times with Reagent 1 working solution. After resuspending the cells in 0.2–0.5 mL of Reagent 1 working solution, the samples were detected using a fluorescence microplate reader (excitation wavelength: 542 nm, emission wavelength: 575 nm).

Consider `COc1ccc(-c2nc(-c3cc(C(F)(F)F)cc(C(F)(F)F)c3)n(Cc3ccc(C(=O)NCCOCCOCCOCCn4cc(COc5ccc(N(C(=O)CCl)C(C(=O)NCCc6ccccc6)c6cccs6)cc5Cl)nn4)cc3)c2-c2ccc(OC)cc2)cc1` (stereo not drawn) [GDAz-3, 4-((2-(3,5-bis(trifluoromethyl)phenyl)-4,5-bis(4-methoxyphenyl)-1H-imidazol-1-yl)methyl)-N-(2-(2-(2-(2-(4-((2-chloro-4-(2-chloro-N-(2-oxo-2-(phenethylamino)-1-(thiophen-2-yl)ethyl)acetamido)phenoxy)methyl)-1H-1,2,3-triazol-1-yl)ethoxy)ethoxy)ethoxy)ethyl)benzamide], for which the GPX4 degradation entry on GPX4 [1] is “effectively induce the degradation of GPX4 to varying extents”. Moreover, the “GPX4 degradation in 786-O cells” value at GPX4 [2] (0.5 µM) is on record as “obvious GPX4 degradation”. Moreover, the remaining activity at 0.1 µM at GPX4 [2] (786-0, 786-O cell line, 0.1 µM, read-out: GPX4 % of control) stood at 89%. Besides, the remaining activity at 0.5 µM on GPX4 [2] (786-0, 786-O cell line, 0.5 µM, read-out: GPX4 % of control) worked out at 54%. The remaining activity at 1 µM on GPX4 [2] (786-0, 786-O cell line, 1 µM, read-out: GPX4 % of control) came to 33%. Besides, in data set [3], the AUC(0-inf) is 3140 ng·h/mL, the AUC(0-t) turned out to be 2450 ± 939 ng·h/mL, the Cmax is 201 ng/mL and the MRT inf stood at 15.5 ± 1.31 h. In addition, in data set [3], the Tmax was determined as 4 h and the half-life was 10.2 h. Besides, the “Content of Fe2+” value in the data set on Fe2+ is reported as “increased”.
